Read-outs that look alike come from different tables or passages of the source.
What was measured:
[1] = system: RET-mutant medullary thyroid cancer; details: clinical phase 1 study; cited from earlier work
[2] = 2 h pharmacokinetic study with or without elacridar in wild-type and Abcb1a/1b;Abcg2-/- mice; format: in vivo; details: for concentration at 2 h / Cmax / Tmax / AUC(0-t): mouse, 10 mg/kg oral, 2 h; for Cmax / Tmax / AUC(0-t): male, plasma, po, 10 mg/kg; for AUC(0-t): read-out: AUC0–2h
Procedure: (§1) Mice were housed and handled according to institutional guidelines complying with Dutch and EU legislation. All experimental animal protocols were evaluated and approved by the institutional animal care and use committee. Wild-type, Abcb1a/1b^-/-, Abcg2^-/-, Abcb1a/1b; Abcg2^-/-, Slco1a/1b^-/- male mice, and Cyp3a^-/- and Cyp3aXAV female mice, all of a >99% FVB genetic background, were used between 9 and 16 weeks of age. […] All experimental animal protocols (WP9450, 9669, 9760), including power calculations, designed under the nationally approved DEC/CCD project AVD301002016595, were evaluated and approved by the institutional animal care and use committee of The Netherlands Cancer Institute.
Elacridar hydrochloride was dissolved in DMSO (53 mg/mL) in order to obtain 50 mg elacridar base per mL DMSO. The stock solution was further diluted with a mixture of polysorbate 20, 100% ethanol and 5% glucose water to yield a concentration of 5 mg/mL elacridar [DMSO: polysorbate 20: 100% ethanol: 5% glucose water = 10:15:15:60, (v/v/v/v)]. All dosing solutions were prepared freshly on the day of the experiment.
(§2) For the 4 h transporter experiments, tail-vein blood samples were collected at 0.125, 0.25, 0.5, 1, and 2 h time points after oral administration, respectively. For the CYP3A 8 h experiments, tail-vein blood sampling was performed at 0.25, 0.5, 1, 2, and 4 h, respectively. While for elacridar inhibition experiments, tail-vein blood samples were collected at 0.125, 0.25, 0.5, and 1 h time points after oral administration, respectively. Blood sample collection was performed using microvettes containing dipotassium EDTA. At the last time point in each experiment (2, 4 or 8 h), mice were anesthetized with 5% isoflurane and blood was collected by cardiac puncture. Blood samples were collected in Eppendorf tubes containing heparin as an anticoagulant. The mice were then sacrificed by cervical dislocation and brain, liver, kidney, lung, small intestine and testis were rapidly removed. Plasma was isolated from the blood by centrifugation at 9000× g for 6 min at 4 °C, and the plasma fraction was collected and stored at −30 °C until analysis. Organs were homogenized with 4% (w/v) bovine serum albumin and stored at −30 °C until analysis.
(§3) Pharmacokinetic parameters were calculated by noncompartmental methods using the PK solver software. The area under the plasma concentration–time curve (AUC) was calculated using the trapezoidal rule, without extrapolating to infinity. The peak plasma concentration (Cmax) and the time of maximum plasma concentration (Tmax) were estimated from the original (individual mouse) data. One-way analysis of variance (ANOVA) was used when multiple groups were compared and the Tukey post hoc correction was used to accommodate multiple testing. The two-sided unpaired Student’s t-test was used when treatments or differences between two specific groups were compared using the software GraphPad Prism 8 (GraphPad Software Inc., La Jolla, CA, USA). All the data were log-transformed before statistical tests were applied. Differences were considered statistically significant when p < 0.05. All data are presented as geometric mean ± SD.

[3] = system: RET fusion-positive cancers; details: clinical phase 1 study; cited from earlier work
[4] = 4 h main pharmacokinetic experiment in wild-type, Abcb1a/1b-/-, Abcg2-/- and Abcb1a/1b;Abcg2-/- mice; format: in vivo; details: 10 mg/kg oral, 4 h main experiment; for Cmax / Tmax / concentration at 4 h / AUC(0-t): mouse; for Cmax / Tmax / AUC(0-t): plasma; for concentration at 4 h / AUC(0-t): male, po, 10 mg/kg; for AUC(0-t): read-out: AUC0–4h
Procedure: as §1, with “Institute. […]” for “Institute.”
as §2, §3

CNS metastasis = details: 11 patients with measurable CNS lesions, cited from earlier work
[5] = patients; cited from earlier work
[6] = Abcb1a/1b;Abcg2-/- (>99% FVB genetic background), male Abcb1a/1b;Abcg2-/- mice, elacridar 50 mg/kg oral 2 h prior
[7] = Abcb1a/1b;Abcg2-/- (>99% FVB genetic background), male Abcb1a/1b;Abcg2-/- mice, vehicle
[8] = wild-type (>99% FVB genetic background), male wild-type mice, elacridar 50 mg/kg oral 2 h prior
[9] = wild-type (>99% FVB genetic background), male wild-type mice, vehicle
[10] = FVB (Abcb1a/1b-/-), male Abcb1a/1b-/- mice
[11] = FVB (Abcb1a/1b;Abcg2-/-), male Abcb1a/1b;Abcg2-/- mice
[12] = FVB (Abcg2-/-), male Abcg2-/- mice
[13] = FVB (wild-type), male wild-type mice

## COc1ccc(CN2C3CC2CN(c2ccc(-c4cc(OCC(C)(C)O)cn5ncc(C#N)c45)cn2)C3)cn1 [selpercatinib]
[1]
  overall response rate: 45%
[2]; Abcb1a/1b;Abcg2-/- (>99% FVB genetic background), brain, male Abcb1a/1b;Abcg2-/- mice, elacridar 50 mg/kg oral 2 h prior, read-out: Cbrain
  concentration at 2 h: 4710 ± 484 ng/g
[2]; Abcb1a/1b;Abcg2-/- (>99% FVB genetic background), brain, male Abcb1a/1b;Abcg2-/- mice, vehicle, read-out: Cbrain
  concentration at 2 h: 4730 ± 638 ng/g
[2]; FVB (Abcb1a/1b;Abcg2-/-), liver, with elacridar 50 mg/kg oral, 2 h before selpercatinib, male Abcb1a/1b;Abcg2-/- mice, elacridar 50 mg/kg oral 2 h prior, read-out: CLiver
  concentration at 2 h: 23600 ng/g
[2]; FVB (Abcb1a/1b;Abcg2-/-), liver, male Abcb1a/1b;Abcg2-/- mice, vehicle, read-out: CLiver
  concentration at 2 h: 21400 ng/g
[2]; FVB (wild-type), liver, with elacridar 50 mg/kg oral, 2 h before selpercatinib, male wild-type mice, elacridar 50 mg/kg oral 2 h prior, read-out: CLiver
  concentration at 2 h: 20000 ng/g
[2]; FVB (wild-type), liver, male wild-type mice, vehicle, read-out: CLiver
  concentration at 2 h: 18100 ng/g
[2]; FVB, small intestine tissue together with contents, male Abcb1a/1b;Abcg2-/- mice, elacridar 50 mg/kg oral 2 h prior, read-out: CSI + SIC (small intestine tissue together with contents concentration)
  concentration at 2 h: 21200 ng/g
[2]; FVB, small intestine tissue together with contents, male Abcb1a/1b;Abcg2-/- mice, vehicle, read-out: CSI + SIC (small intestine tissue together with contents concentration)
  concentration at 2 h: 18800 ng/g
[2]; FVB, small intestine tissue together with contents, male wild-type mice, elacridar 50 mg/kg oral 2 h prior, read-out: CSI + SIC (small intestine tissue together with contents concentration)
  concentration at 2 h: 26600 ng/g
[2]; FVB, small intestine tissue together with contents, male wild-type mice, vehicle, read-out: CSI + SIC (small intestine tissue together with contents concentration)
  concentration at 2 h: 37600 ng/g
[2]; FVB, testis, male Abcb1a/1b;Abcg2-/- mice, elacridar 50 mg/kg oral 2 h prior, read-out: Ctestis
  concentration at 2 h: 9200 ± 856 ng/g
[2]; FVB, testis, male Abcb1a/1b;Abcg2-/- mice, vehicle, read-out: Ctestis
  concentration at 2 h: 7020 ± 664 ng/g
[2]; FVB, testis, male wild-type mice, elacridar 50 mg/kg oral 2 h prior, read-out: Ctestis
  concentration at 2 h: 5710 ± 1740 ng/g
[2]; FVB, testis, male wild-type mice, vehicle, read-out: Ctestis
  concentration at 2 h: 788 ± 159 ng/g
[2]; [6]
  Cmax: 9620 ± 776 ng/mL
  Tmax: 0.79 ± 0.33 h
  AUC(0-t): 17300 ng·h/mL
[2]; [7]
  Cmax: 8860 ± 792 ng/mL
  Tmax: 1 h
  AUC(0-t): 15100 ng·h/mL
[2]; FVB, wild-type, male wild-type mice, vehicle
  AUC(0-t): 14100 ng·h/mL
[2]; [8]
  Cmax: 7470 ± 1850 ng/mL
  Tmax: 0.5 ± 0.27 h
  AUC(0-t): 12900 ng·h/mL
[2]; [9]
  Cmax: 8740 ± 1560 ng/mL
  Tmax: 0.75 ± 0.27 h
[2]; wild-type (>99% FVB genetic background), brain, male wild-type mice, elacridar 50 mg/kg oral 2 h prior, read-out: Cbrain
  concentration at 2 h: 2760 ± 851 ng/g
[2]; wild-type (>99% FVB genetic background), brain, male wild-type mice, vehicle, read-out: Cbrain
  concentration at 2 h: 210 ± 40 ng/g
[2]; wild-type mice, oral co-administration of elacridar
  abnormal external behavior: without any abnormal external behavior
[3]
  overall response rate: 77%
[4]; [10]
  Cmax: 10300 ng/mL
  Tmax: 1.8 ± 1.3 h
[4]; [11]
  Cmax: 11000 ng/mL
  Tmax: 1.5 ± 1.3 h
  AUC(0-t): 39000 ng·h/mL
[4]; [12]
  Cmax: 11400 ng/mL
  Tmax: 1.4 ± 0.74 h
[4]; [13]
  Cmax: 6910 ± 761 ng/mL
  Tmax: 1.6 ± 1.4 h
[4]; male Abcb1a/1b-/- mice
  SIC percentage of dose: 1.1 ± 0.3%
[4]; male Abcb1a/1b;Abcg2-/- mice
  SIC percentage of dose: 0.69 ± 0.52 %
[4]; male Abcg2-/- mice
  SIC percentage of dose: 1.6 ± 0.7 %
[4]; male wild-type mice
  SIC percentage of dose: 2.3 ± 0.9%
[4]; FVB (Abcb1a/1b-/-), brain, male Abcb1a/1b-/- mice, read-out: Cbrain
  concentration at 4 h: 2000 ± 233 ng/g
[4]; FVB (Abcb1a/1b;Abcg2-/-), brain, male Abcb1a/1b;Abcg2-/- mice, read-out: Cbrain
  concentration at 4 h: 4260 ± 853 ng/g
[4]; FVB (Abcg2-/-), brain, male Abcg2-/- mice, read-out: Cbrain
  concentration at 4 h: 418 ± 102 ng/g
[4]; FVB (wild-type), brain, male wild-type mice, read-out: Cbrain
  concentration at 4 h: 420 ± 66 ng/g
[4]; FVB, liver, male Abcb1a/1b-/- mice, read-out: CLiver
  concentration at 4 h: 34000 ng/g
[4]; FVB, liver, male Abcb1a/1b;Abcg2-/- mice, read-out: CLiver
  concentration at 4 h: 23200 ng/g
[4]; FVB, liver, male Abcg2-/- mice, read-out: CLiver
  concentration at 4 h: 19300 ng/g
[4]; FVB, liver, male wild-type mice, read-out: CLiver
  concentration at 4 h: 25700 ng/g
[4]; FVB, male Abcb1a/1b-/- mice
  AUC(0-t): 37000 ng·h/mL
[4]; FVB, male Abcg2-/- mice
  AUC(0-t): 39100 ng·h/mL
[4]; FVB, male wild-type mice
  AUC(0-t): 23700 ng·h/mL
[4]; FVB, small intestine contents, male Abcb1a/1b-/- mice, read-out: CSIC (small intestine contents concentration)
  concentration at 4 h: 69400 ng/g
[4]; FVB, small intestine contents, male Abcb1a/1b;Abcg2-/- mice, read-out: CSIC (small intestine contents concentration)
  concentration at 4 h: 27400 ng/g
[4]; FVB, small intestine contents, male Abcg2-/- mice, read-out: CSIC (small intestine contents concentration)
  concentration at 4 h: 91700 ng/g
[4]; FVB, small intestine contents, male wild-type mice, read-out: CSIC (small intestine contents concentration)
  concentration at 4 h: 98100 ng/g
[4]; FVB, small intestine, male Abcb1a/1b-/- mice, read-out: CSI (small intestine tissue concentration)
  concentration at 4 h: 17000 ng/g
[4]; FVB, small intestine, male Abcb1a/1b;Abcg2-/- mice, read-out: CSI (small intestine tissue concentration)
  concentration at 4 h: 11600 ng/g
[4]; FVB, small intestine, male Abcg2-/- mice, read-out: CSI (small intestine tissue concentration)
  concentration at 4 h: 13000 ng/g
[4]; FVB, small intestine, male wild-type mice, read-out: CSI (small intestine tissue concentration)
  concentration at 4 h: 21600 ng/g
[4]; FVB, testis, male Abcb1a/1b-/- mice, read-out: Ctestis
  concentration at 4 h: 3480 ± 634 ng/g
[4]; FVB, testis, male Abcb1a/1b;Abcg2-/- mice, read-out: Ctestis
  concentration at 4 h: 8330 ± 935 ng/g
[4]; FVB, testis, male Abcg2-/- mice, read-out: Ctestis
  concentration at 4 h: 1050 ± 192 ng/g
[4]; FVB, testis, male wild-type mice, read-out: Ctestis
  concentration at 4 h: 811 ± 148 ng/g
CNS metastasis; independent review
  percentage with an objective intracranial response: 91%
CNS metastasis
  complete responses (intracranial): 27%
  partial responses (intracranial): 64%
[5]
  AUC0–24h: 51,600 ng/mL*h
  average Cmax: 2980 ng/mL
